Measurements: the CheMixHub ionic liquid set

Assay: xn = mol fraction of the nth substance listed
Conditions: for electrical conductivity: 101 kPa, frequency 2 MHz; for viscosity: 100 kPa

O=S(=O)([O-])C(F)(F)F.[Li+] + O=S(=O)([N-]S(=O)(=O)C(F)(F)F)C(F)(F)F.[Li+] + O
Conditions	electrical conductivity [S/m]	viscosity [mPa·s]
318.1 K, x2 = 0.001799, x1 = 0.0005943	1.16	–
318.1 K, x2 = 0.005377, x1 = 0.001799	2.87	–
318.1 K, x2 = 0.00893, x1 = 0.003054	4.22	–
318.1 K, x2 = 0.01246, x1 = 0.004127	5.324	–
318.1 K, x2 = 0.01596, x1 = 0.005377	6.231	–
318.1 K, x2 = 0.01944, x1 = 0.006623	6.98	–
318.1 K, x2 = 0.05129, x1 = 0.0177	9.39	–
318.1 K, x2 = 0.08265, x1 = 0.02921	8.25	–
318.1 K, x2 = 0.112, x1 = 0.04029	6.46	–
318.1 K, x2 = 0.1395, x1 = 0.05129	4.845	–
318.1 K, x2 = 0.1654, x1 = 0.06203	3.58	–
318.1 K, x2 = 0.1898, x1 = 0.07238	2.631	–
318.1 K, x2 = 0.2128, x1 = 0.08265	1.932	–
318.1 K, x2 = 0.2345, x1 = 0.0927	1.418	–
318.1 K, x2 = 0.2551, x1 = 0.1024	1.04	–
318.1 K, x2 = 0.2745, x1 = 0.112	0.76	–
318.15 K, x1 = 0.04029, x2 = 0.1114	–	4.4
318.15 K, x1 = 0.07222, x2 = 0.1893	–	15.2
318.15 K, x1 = 0.09226, x2 = 0.2336	–	31.9
318.15 K, x1 = 0.1024, x2 = 0.2553	–	43.4
318.15 K, x1 = 0.1122, x2 = 0	–	2.27
318.15 K, x1 = 0.1122, x2 = 0.2745	–	63
318.15 K, x1 = 0.1783, x2 = 0	–	5.3
318.15 K, x1 = 0.2388, x2 = 0	–	11.1
318.15 K, x1 = 0.2541, x2 = 0	–	15.9
318.15 K, x1 = 0.2743, x2 = 0	–	23.9
323 K, x2 = 0.001799, x1 = 0.0005943	1.26	–
323 K, x2 = 0.005377, x1 = 0.001799	3.132	–
323 K, x2 = 0.00893, x1 = 0.003054	4.612	–
323 K, x2 = 0.01246, x1 = 0.004127	5.82	–
323 K, x2 = 0.01596, x1 = 0.005377	6.813	–
323 K, x2 = 0.01944, x1 = 0.006623	7.629	–
323 K, x2 = 0.05129, x1 = 0.0177	10.26	–
323 K, x2 = 0.08265, x1 = 0.02921	9.028	–
323 K, x2 = 0.112, x1 = 0.04029	7.08	–
323 K, x2 = 0.1395, x1 = 0.05129	5.343	–
323 K, x2 = 0.1654, x1 = 0.06203	3.97	–
323 K, x2 = 0.1898, x1 = 0.07238	2.943	–
323 K, x2 = 0.2128, x1 = 0.08265	2.18	–
323 K, x2 = 0.2345, x1 = 0.0927	1.616	–
323 K, x2 = 0.2551, x1 = 0.1024	1.2	–
323 K, x2 = 0.2745, x1 = 0.112	0.884	–
328.1 K, x2 = 0.001799, x1 = 0.0005943	1.37	–
328.1 K, x2 = 0.005377, x1 = 0.001799	3.4	–
328.1 K, x2 = 0.00893, x1 = 0.003054	5.004	–
328.1 K, x2 = 0.01246, x1 = 0.004127	6.316	–
328.1 K, x2 = 0.01596, x1 = 0.005377	7.39	–
328.1 K, x2 = 0.01944, x1 = 0.006623	8.28	–
328.1 K, x2 = 0.05129, x1 = 0.0177	11.13	–
328.1 K, x2 = 0.08265, x1 = 0.02921	9.803	–
328.1 K, x2 = 0.112, x1 = 0.04029	7.716	–
328.1 K, x2 = 0.1395, x1 = 0.05129	5.846	–
328.1 K, x2 = 0.1654, x1 = 0.06203	4.37	–
328.1 K, x2 = 0.1898, x1 = 0.07238	3.27	–
328.1 K, x2 = 0.2128, x1 = 0.08265	2.439	–
328.1 K, x2 = 0.2345, x1 = 0.0927	1.824	–
328.1 K, x2 = 0.2551, x1 = 0.1024	1.36	–
328.1 K, x2 = 0.2745, x1 = 0.112	1.017	–
328.15 K, x1 = 0.04029, x2 = 0.1114	–	3.5
328.15 K, x1 = 0.07222, x2 = 0.1893	–	11.5
328.15 K, x1 = 0.09226, x2 = 0.2336	–	22.9
328.15 K, x1 = 0.1024, x2 = 0.2553	–	30.9
328.15 K, x1 = 0.1122, x2 = 0	–	1.85
328.15 K, x1 = 0.1122, x2 = 0.2745	–	43.6
328.15 K, x1 = 0.1783, x2 = 0	–	4.2
328.15 K, x1 = 0.2388, x2 = 0	–	8.6
328.15 K, x1 = 0.2541, x2 = 0	–	12.2
328.15 K, x1 = 0.2743, x2 = 0	–	18.1
333 K, x2 = 0.001799, x1 = 0.0005943	1.47	–
333 K, x2 = 0.005377, x1 = 0.001799	3.66	–
333 K, x2 = 0.00893, x1 = 0.003054	5.39	–
333 K, x2 = 0.01246, x1 = 0.004127	6.804	–
333 K, x2 = 0.01596, x1 = 0.005377	7.97	–
333 K, x2 = 0.01944, x1 = 0.006623	8.919	–
333 K, x2 = 0.05129, x1 = 0.0177	12	–
333 K, x2 = 0.08265, x1 = 0.02921	10.6	–
333 K, x2 = 0.112, x1 = 0.04029	8.339	–
333 K, x2 = 0.1395, x1 = 0.05129	6.348	–
333 K, x2 = 0.1654, x1 = 0.06203	4.78	–
333 K, x2 = 0.1898, x1 = 0.07238	3.59	–
333 K, x2 = 0.2128, x1 = 0.08265	2.706	–
333 K, x2 = 0.2345, x1 = 0.0927	2.041	–
333 K, x2 = 0.2551, x1 = 0.1024	1.539	–
333 K, x2 = 0.2745, x1 = 0.112	1.16	–
338.1 K, x2 = 0.001799, x1 = 0.0005943	1.57	–
338.1 K, x2 = 0.005377, x1 = 0.001799	3.913	–
338.1 K, x2 = 0.00893, x1 = 0.003054	5.77	–
338.1 K, x2 = 0.01246, x1 = 0.004127	7.28	–
338.1 K, x2 = 0.01596, x1 = 0.005377	8.517	–
338.1 K, x2 = 0.01944, x1 = 0.006623	9.534	–
338.1 K, x2 = 0.05129, x1 = 0.0177	12.8	–
338.1 K, x2 = 0.08265, x1 = 0.02921	11.3	–
338.1 K, x2 = 0.112, x1 = 0.04029	8.943	–
338.1 K, x2 = 0.1395, x1 = 0.05129	6.839	–
338.1 K, x2 = 0.1654, x1 = 0.06203	5.18	–
338.1 K, x2 = 0.1898, x1 = 0.07238	3.921	–
338.1 K, x2 = 0.2128, x1 = 0.08265	2.98	–
338.1 K, x2 = 0.2345, x1 = 0.0927	2.26	–
338.1 K, x2 = 0.2551, x1 = 0.1024	1.72	–
338.1 K, x2 = 0.2745, x1 = 0.112	1.303	–
343 K, x2 = 0.001799, x1 = 0.0005943	1.67	–
343 K, x2 = 0.005377, x1 = 0.001799	4.16	–
343 K, x2 = 0.00893, x1 = 0.003054	6.124	–
343 K, x2 = 0.01246, x1 = 0.004127	7.725	–
343 K, x2 = 0.01596, x1 = 0.005377	9.039	–
343 K, x2 = 0.01944, x1 = 0.006623	10.12	–
343 K, x2 = 0.05129, x1 = 0.0177	13.6	–
343 K, x2 = 0.08265, x1 = 0.02921	12	–
343 K, x2 = 0.112, x1 = 0.04029	9.518	–
343 K, x2 = 0.1395, x1 = 0.05129	7.313	–
343 K, x2 = 0.1654, x1 = 0.06203	5.57	–
343 K, x2 = 0.1898, x1 = 0.07238	4.245	–
343 K, x2 = 0.2128, x1 = 0.08265	3.244	–
343 K, x2 = 0.2345, x1 = 0.0927	2.48	–
343 K, x2 = 0.2551, x1 = 0.1024	1.903	–
343 K, x2 = 0.2745, x1 = 0.112	1.45	–
348.1 K, x2 = 0.001799, x1 = 0.0005943	1.77	–
348.1 K, x2 = 0.005377, x1 = 0.001799	4.39	–
348.1 K, x2 = 0.00893, x1 = 0.003054	6.46	–
348.1 K, x2 = 0.01246, x1 = 0.004127	8.142	–
348.1 K, x2 = 0.01596, x1 = 0.005377	9.522	–
348.1 K, x2 = 0.01944, x1 = 0.006623	10.7	–
348.1 K, x2 = 0.05129, x1 = 0.0177	14.26	–
348.1 K, x2 = 0.08265, x1 = 0.02921	12.6	–
348.1 K, x2 = 0.112, x1 = 0.04029	10.05	–
348.1 K, x2 = 0.1395, x1 = 0.05129	7.76	–
348.1 K, x2 = 0.1654, x1 = 0.06203	5.943	–
348.1 K, x2 = 0.1898, x1 = 0.07238	4.56	–
348.1 K, x2 = 0.2128, x1 = 0.08265	3.507	–
348.1 K, x2 = 0.2345, x1 = 0.0927	2.705	–
348.1 K, x2 = 0.2551, x1 = 0.1024	2.08	–
348.1 K, x2 = 0.2745, x1 = 0.112	1.6	–
353 K, x2 = 0.001799, x1 = 0.0005943	1.86	–
353 K, x2 = 0.005377, x1 = 0.001799	4.601	–
353 K, x2 = 0.00893, x1 = 0.003054	6.76	–
353 K, x2 = 0.01246, x1 = 0.004127	8.518	–
353 K, x2 = 0.01596, x1 = 0.005377	9.96	–
353 K, x2 = 0.01944, x1 = 0.006623	11.13	–
353 K, x2 = 0.05129, x1 = 0.0177	14.9	–
353 K, x2 = 0.08265, x1 = 0.02921	13.18	–
353 K, x2 = 0.112, x1 = 0.04029	10.5	–
353 K, x2 = 0.1395, x1 = 0.05129	8.17	–
353 K, x2 = 0.1654, x1 = 0.06203	6.29	–
353 K, x2 = 0.1898, x1 = 0.07238	4.86	–
353 K, x2 = 0.2128, x1 = 0.08265	3.76	–
353 K, x2 = 0.2345, x1 = 0.0927	2.917	–
353 K, x2 = 0.2551, x1 = 0.1024	2.26	–
353 K, x2 = 0.2745, x1 = 0.112	1.744	–
358.1 K, x2 = 0.001799, x1 = 0.0005943	1.942	–
358.1 K, x2 = 0.005377, x1 = 0.001799	4.79	–
358.1 K, x2 = 0.00893, x1 = 0.003054	7.029	–
358.1 K, x2 = 0.01246, x1 = 0.004127	8.846	–
358.1 K, x2 = 0.01596, x1 = 0.005377	10.33	–
358.1 K, x2 = 0.01944, x1 = 0.006623	11.5	–
358.1 K, x2 = 0.05129, x1 = 0.0177	15.41	–
358.1 K, x2 = 0.08265, x1 = 0.02921	13.7	–
358.1 K, x2 = 0.112, x1 = 0.04029	11	–
358.1 K, x2 = 0.1395, x1 = 0.05129	8.535	–
358.1 K, x2 = 0.1654, x1 = 0.06203	6.609	–
358.1 K, x2 = 0.1898, x1 = 0.07238	5.128	–
358.1 K, x2 = 0.2128, x1 = 0.08265	4	–
358.1 K, x2 = 0.2345, x1 = 0.0927	3.118	–
358.1 K, x2 = 0.2551, x1 = 0.1024	2.429	–
358.1 K, x2 = 0.2745, x1 = 0.112	1.88	–
